# In EP0552223B1, “USE OF BENZENE DERIVATIVES AS CHARGE TRANSFER MEDIATORS” (NOVO NORDISK A/S, priority 1990, dated 1992):
# Assays:
# [1] = molecular target: T1, Glucose oxidase (GOD) (E.C.1.1.3.4.) (Aspergillus niger, UniProt P13006); assay: Cyclic voltammetry of GOD-graphite/paraffin pasta electrode containing the mediator; format: biochemical; conditions: Ag/AgCl ref.
# Experimental: • 1) A paste containing GOD-immobilized graphite, paraffin and mediator is prepared. If the mediator has a big solubility in paraffin then 10 mg of mediator is used per ml of paraffin. If the mediator has a little solubility in paraffin then 50 mg of crystals are added per ml of paraffin in order to obtain a homogeneous mixture before graphite is added. The paste obtained is filled into sticks. • 2) The activity of the paste is determined in a cyclic voltametri equipment where the current is measured as a function of the potential (CV sweep). Five concentrations of glucose are measured, i.e., 0, 5, 10, 15 and 20 mM. Based upon the results obtained, the following is evaluated: • a) whether the mediator can be oxidized and reduced by the graphite electrode, • b) whether the mediator can be reduced of GOD, • c) the optimal potential for the electorde to be used, • d) whether a lineary response as a function of the concentration of glucose can be obtained using the concentration of mediator in question, • e) whether the concentration of the mediator can be optimized. • 3) The response as a function of time at the optimal potential is to be measured. The time interval within which the response represents a stable response for the concentration of glucose is to be evaluated. • 4) The stability of the mediator in the paste question is determined.
# (§1) Glucose oxidase (GOD) (E.C.1.1.3.4.) was immobilized on graphite particles by the following procedure: 10 g of graphite was oxidized in air at 100°C for 24 hours. The surface oxidized graphite particles were activated with 500 mg of 1-cyclohexyl-3-(2-morpholinoethyl)carbodiimide metho-p-toluenesulfonate in 100 ml of 0.1 M acetate buffer (pH 4.76) for 2 hours, then washed with distilled water until an approximately neutral pH value and dried. The activated graphite was mixed with 30 ml of 0.01 phosphate buffer (pH 7.3) containing 80,000 IU GOD and 4% glutaraldehyde for 16 hours at 4°C, dried and sieved through a 48 mesh to obtain uniform particles.
# (§2) 1 g of paraffin oil containing 5% Methylene green (4-nitro-3,7-bis(dimethylamino)phenothiazine) was mixed carefully with 2 g of GOD modified graphite to a uniform pasta.
# (§3) The pasta was filled into a plastic rod in which it was possible to cut a thin cross-sectional slice to introduce a new well-defined electrode area. Before each measurement, the electrode surface was renewed. The working electrode area used was 3 mm^2.
# In the study of the working electrode, an Ag auxiliary electrode and an Ag/AgCl reference electrode was used. In a cyclic voltammogram, a catalytic current from the reoxidation of the mediator was observed beginning at -50 mV and being stable between 50 and 400 mV. The current was proportional to the concentration of glucose used.
# (§4) Data in the table are obtained using the same procedure as in Example 1.
# [2] = molecular target: T1, Glucose oxidase (GOD) (E.C.1.1.3.4.); assay: Chronoamperometry of GOD-graphite/paraffin pasta electrode containing the mediator (glucose measurement); format: biochemical
# Experimental: as §1, §2, §3
# Chronoamperometry was preformed at 100 mV using the integrated current from 30 to 60 seconds after applying the potential. A linearity up to 40 mM glucose was obtained. The current was 500 nA/(sec*mM). The signal was not affected by the oxygen concentration in the solution. Reference pasta without Methylene green was not affected by different glucose concentrations.
# as §4
# [3] = Redox potential of the mediator at GC electrode; format: physicochemical; conditions: Ag/AgCl ref.; in mV (unit assumed)
# Text: as §4
# [4] = Stability test of pasta rods with selected mediators stored at different temperatures; format: physicochemical; design: unit not given here
# Experimental: The stability of a paste with a certain mediator can be determined using the following method:
# The mediator is dissolved or mixed with paraffin and, thereafter, the enzyme coupled to graphite is added. The mixture is homogenized giving a paste. This paste is filled into electrode holders of plast giving so-called sticks. These sticks are tested using 0 and 10 mM glucose standards in order to characterize the activity of these sticks in relation to glucose. Thereafter, the paste containing sticks are stored at a constant temperature, for example, 4, 20, 35 and 54°C. After a certain period of time, for example 1 month, the sticks are tested using the 0 and 10 mM glucose standards and the activities measured are compared with the activity measured at originally.
# Data are obtained using the same basis procedure as in Example 1. Rods with selected mediators were stored at different temperature to accelerate processes which could give new analytical performance.
# Lactate oxidase = molecular target: T2, Lactate oxidase (Aerococcus viridans, UniProt Q44467); assay: Lactate assay with enzyme-graphite pasta electrode and mediator; format: biochemical; conditions: lactate system; at 100 mV vs. Ag/AgCl reference electrode
# T2 construct: purchased Sigma
# T2 sequence (Q44467 1-374): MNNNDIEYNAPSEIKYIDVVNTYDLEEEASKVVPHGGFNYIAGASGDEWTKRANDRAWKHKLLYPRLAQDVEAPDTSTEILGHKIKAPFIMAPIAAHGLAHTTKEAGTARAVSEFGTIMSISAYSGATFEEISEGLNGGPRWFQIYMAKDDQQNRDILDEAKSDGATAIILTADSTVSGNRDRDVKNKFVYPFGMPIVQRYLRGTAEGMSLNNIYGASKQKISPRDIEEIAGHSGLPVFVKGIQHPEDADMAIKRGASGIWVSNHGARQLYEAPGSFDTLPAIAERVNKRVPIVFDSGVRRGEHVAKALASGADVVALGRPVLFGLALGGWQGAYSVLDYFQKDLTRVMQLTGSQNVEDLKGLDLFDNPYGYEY
# Experimental: Lactate oxidase and alcohol oxidase were obtained from Sigma and the enzymes were used as in Example 1. The same mediators as in Example 4 were tested in the electrodes. The best response for the lactate system was obtained with Methylene green, which gave a current density at 4 µA/cm^2/mM at 100 mV vs. Ag/AgCl reference electrode. For the alcohol system ethanol was used as enzyme substrate. The current density was much lower than for the lactate system and none of the tested mediators worked optimally. Other mediators sucessfully tested with glucose oxidase are expected to give higher current densitites due to differences in hydrophobicity and hydrophillicity.
# T1 sequence (P13006 17-605, species assumed): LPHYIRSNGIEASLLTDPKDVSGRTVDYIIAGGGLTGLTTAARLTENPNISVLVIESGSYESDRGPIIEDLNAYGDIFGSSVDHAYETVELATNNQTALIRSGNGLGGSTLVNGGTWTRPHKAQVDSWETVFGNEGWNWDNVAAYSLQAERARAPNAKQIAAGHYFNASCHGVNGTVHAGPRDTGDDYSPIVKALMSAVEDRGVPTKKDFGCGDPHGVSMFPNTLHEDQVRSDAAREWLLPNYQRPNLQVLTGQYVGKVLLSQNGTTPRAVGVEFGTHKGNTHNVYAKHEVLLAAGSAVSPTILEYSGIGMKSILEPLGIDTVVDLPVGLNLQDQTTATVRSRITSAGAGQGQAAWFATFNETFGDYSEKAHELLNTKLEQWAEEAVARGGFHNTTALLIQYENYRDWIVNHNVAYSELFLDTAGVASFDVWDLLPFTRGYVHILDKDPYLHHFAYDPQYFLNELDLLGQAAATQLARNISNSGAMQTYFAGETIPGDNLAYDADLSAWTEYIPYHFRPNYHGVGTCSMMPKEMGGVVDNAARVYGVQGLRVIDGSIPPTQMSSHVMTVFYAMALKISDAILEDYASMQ
smiles,measurement,setting,value
"CN(C)c1ccc2c(c1)Sc1c(ccc(N(C)C)c1[N+](=O)[O-])N2 [MG, 4-nitro-3,7-bis(dimethylamino)phenothiazine]",Catalytic interval beginning at,[1],-50 mV
same,Working potential,[2]; Ag/AgCl ref.,100
same,SD% of 100 measurement,[2]; at 7mM glucose,7.5%
same,Signal to noice ration,[2]; at 7mM glucose,22.5
same,signal affected by the oxygen concentration in the solution,[2]; at 100 mV,not affected
same,current,"[2]; at 100 mV, integrated current from 30 to 60 seconds after applying the potential",500 nA/(sec*mM)
same,Linearity,[2]; glucose,40 mM
same,Linearity in mM,"[2]; glucose, listed as Methylene green",up to 40 mM
same,Redoxpotential at GCElectrode,[3],-149
same,activity of rod in stability test,"[4]; 4°C, listed as a, Time 0",13.7
same,activity of rod in stability test,"[4]; 4°C, listed as a, Time 75",13.2
same,activity of rod in stability test,"[4]; 4°C, listed as b, Time 0",10.0
same,activity of rod in stability test,"[4]; 4°C, listed as b, Time 75",14.3
same,activity of rod in stability test,"[4]; 20°C, listed as a, Time 0",14.9
same,activity of rod in stability test,"[4]; 20°C, listed as a, Time 75",14.3
same,activity of rod in stability test,"[4]; 20°C, listed as b, Time 0",12.5
same,activity of rod in stability test,"[4]; 20°C, listed as b, Time 75",15.4
same,activity of rod in stability test,"[4]; 35°C, listed as a, Time 0",12.1
same,activity of rod in stability test,"[4]; 35°C, listed as a, Time 75",11.2
same,activity of rod in stability test,"[4]; 35°C, listed as b, Time 0",13.3
same,activity of rod in stability test,"[4]; 35°C, listed as b, Time 75",12.2
same,activity of rod in stability test,"[4]; 54°C, listed as a, Time 0",15.8
same,activity of rod in stability test,"[4]; 54°C, listed as a, Time 75",10.4
same,activity of rod in stability test,"[4]; 54°C, listed as b, Time 0",12.8
same,activity of rod in stability test,"[4]; 54°C, listed as b, Time 75",12.6
same,current density,Lactate oxidase,4 µA/cm^2/mM
